Experimental findings from patent publication US8063018B2, “Bivalent thrombin binding molecules comprising linkers” (National Research Council of Canada, priority 2004, dated 2011) are described below.

One test has as its target thrombin (Homo sapiens, UniProt P00734). Kind of test: Fibrinogen clotting assay catalyzed by thrombin. The test is classed as biochemical. The note with it: 25 nM inhibitor, 5 and 10 μM SAP-SH2, 25° C. The protocol:
Curves represent OD420 time course after the addition of 0.6 nM thrombin in the presence of (♦) 0 nM; (◯) 0.5 nM; (□) 1 nM; (Δ) 1.5 nM; (⋄) 2.5 nM; (●) 3.75 nM; (▪) 6.25 nM; and (▴) […] of the inhibitor with linker (GS)n and n=2 (SEQ. ID. NO. 50) (a); n=4 (SEQ. ID. NO. 51) (b); n=6 (SEQ. ID. NO. 52) (c); n=8 (SEQ. ID. NO. 53) (d); n=10 (SEQ. ID. NO. 54) (e); and in the presence of (♦) 0 nM; (◯) 1 nM; (□) 2 nM; (Δ) 4 nM; (⋄) 6 nM; (●) 10 nM; (▪) 15 nM; and (▴) 25 nM of the inhibitor with linker (GS)n and n=12 (SEQ. ID. NO. 55) (f); n=14 (SEQ. ID. NO. 56) (g), at 37° C. The onset clotting time was determined as an intersection of the baseline and the extrapolated linear portion of the OD change curve. […] Curves (i) represent OD420 time course in the presence of (A) 0 nM; (◯) 1 nM; (□) 2 nM; (Δ) 4 nM; (⋄) 6 nM; and (●) 15 nM of the inhibitor with linker […] (SEQ. ID. NO. 103), at 37° C. […] represent OD420 time course in the presence of (◯) 0 nM; (□) 2 nM; (Δ) 4 nM; (⋄) 6 nM; (●) 8 nM; (▪) 10 nM; (▴) 12 nM; and (♦) 15 nM; of the inhibitor with linker […] (SEQ. ID. NO. 58) at 25° C. Curves (k) represent OD420 time course in the presence of (◯) 0 nM; (□) 0.5 nM; (Δ) 1 nM; (⋄) 2 nM; (●) 3 nM; (▪) 4 nM; (▴) 5 nM; and (♦) 6 nM; of the inhibitor with linker […] (SEQ. ID. NO. 105) at 37° C. Curves (I) represent OD420 time course in the presence of (◯) 0 nM; (□) 0.25 nM; (Δ) 0.5 nM; (⋄) 1 nM; (●) 1.5 nM; (▪) 2 nM; and (▴) 2.5 nM; of the inhibitor with linker […] (SEQ. ID. NO. 104) at 37° C. Curves (m) represent OD420 time course in the presence of (◯) 0 nM; (□) 2 nM; (Δ) 4 nM; (⋄) 6 nM; (●) 8 nM; (▴) 10 nM; and (A) 12 nM; of the inhibitor with linker […] (SEQ. ID. NO. 106) at 37° C. Curves (n) represent OD420 time course in the presence of (◯) 0 nM; (□) 1 nM; (Δ) 2 nM; (⋄) 3 nM; (●) 4 nM; (▪) 5 nM; (▴) 6 nM; and (♦) 7 nM; of the inhibitor with linker […] (SEQ. ID. NO. 107) at 37° C. Curves (o) represent OD420 time course in the presence of (◯) 0 nM; (□) 4 nM; and (Δ) 8 nM; of the inhibitor with linker GQSHNR (SEQ. ID. NO. 108) at 37° C.
Other experimental conditions were as used for the assays described in FIG. 2.
Clotting assays were carried out by use of the protocols described previously (DiMaio and others, 1990, 21698-21703; Witting and others, 1992, 737-743). The assay employs bovine plasma fibrinogen dissolved at 0.1% in 50 mM Tris-Cl, 100 mM NaCl, 0.1% PEG-8000 at pH 7.6 (i.e. the clotting buffer). Each assay mixture contained a certain concentration of the peptide, and the reaction was started by the addition of human thrombin to a final concentration of 0.6-1.2 nM. Optical absorbance increase at 420 nm caused by fibrin clot formation was measured at 25° C. or 37° C. using the Spectramax plate reader. The onset clotting time was determined as an intersection of the baseline and the extrapolated linear portion of the OD change curve. The concentration of a peptide needed to double the clotting time was defined as IC50 (DiMaio and others, 1990, 21698-21703). Kinetic amidolytic curves were obtained in clotting buffer at 25° C. using eight inhibitor concentrations and three to five concentrations of the chromogenic substrate S-2238 (Chromogenix) (DiMaio and others, 1990, 21698-21703). Inhibition constants were extracted from Lineweaver-Burk equation by using weighted linear regression. Errors in Ki determination were estimated by using Monte-Carlo sampling with 1-3% variance of the experimental points.
As for `CC[C@H](C)[C@H](NC(=O)[C@@H](NC(=O)[C@H](CC(C)C)NC(=O)[C@H](CO)NC(=O)[C@H](CCCCN)NC(=O)[C@H](CCCNC(=N)N)NC(=O)CNC(=O)[C@H]1CCCCN1C(=O)[C@H](CCCNC(=N)N)NS(=O)(=O)c1ccc(C(C)(C)C)cc1)[C@@H](C)O)C(=O)N[C@@H](Cc1ccc(O)cc1)C(=O)N[C@@H](C)C(=O)N[C@@H](CCC(N)=O)C(=O)N[C@H](C(=O)N[C@@H](CCC(N)=O)C(=O)N[C@@H](CCCCN)C(=O)NCC(=O)N[C@@H](CC(=O)O)C(=O)N[C@@H](Cc1ccccc1)C(=O)N[C@@H](CCC(=O)O)C(=O)N[C@@H](CCC(=O)O)C(=O)N[C@H](C(=O)N1CCC[C@H]1C(=O)N[C@@H](CCC(=O)O)C(=O)N[C@@H](CCC(=O)O)C(=O)N[C@@H](Cc1ccc(O)cc1)C(=O)N[C@@H](CC(C)C)C(=O)N[C@@H](CCC(N)=O)C(=O)O)[C@@H](C)CC)C(C)C` [P3291], the “Effect of SAP-SH2 on thrombin inhibition” value is reported as “reversal of thrombin inhibition”.

The same test, now with this note: IC50, nM (25° C.), 25° C.; concentration needed to double the clotting time.
Take `CC[C@H](C)[C@H](NC(=O)[C@H](CCC(=O)O)NC(=O)[C@H](CCC(=O)O)NC(=O)[C@H](Cc1ccccc1)NC(=O)[C@H](CC(=O)O)NC(=O)CNC(=O)[C@H](CO)NC(=O)[C@@H](NC(=O)[C@H](CCCCN)NC(=O)[C@H](CCC(=O)O)NC(=O)[C@H](Cc1ccc(O)cc1)NC(=O)[C@H](Cc1c[nH]cn1)NC(=O)[C@@H]1CCCN1C(=O)[C@H](CO)NC(=O)CNC(=O)[C@H](CO)NC(=O)[C@@H](NC(=O)[C@H](CCCCN)NC(=O)[C@H](CCC(=O)O)NC(=O)[C@H](Cc1ccc(O)cc1)NC(=O)[C@H](Cc1c[nH]cn1)NC(=O)[C@@H]1CCCN1C(=O)[C@H](CO)NC(=O)CNC(=O)[C@H]1CCCCN1C(=O)[C@H](CCCNC(=N)N)NS(=O)(=O)c1ccc(C(C)(C)C)cc1)C(C)C)C(C)C)C(=O)N1CCC[C@H]1C(=O)N[C@@H](CCC(=O)O)C(=O)N[C@@H](CCC(=O)O)C(=O)N[C@@H](Cc1ccc(O)cc1)C(=O)N[C@@H](CC(C)C)C(=O)N[C@@H](CCC(N)=O)C(=O)O` [P3161]: the IC50 (as a rule, the midpoint of a concentration-inhibition curve) worked out at 0.7 nM.

On to `CC[C@H](C)[C@H](NC(=O)[C@@H](NC(=O)[C@H](CC(C)C)NC(=O)[C@H](CO)NC(=O)[C@H](CCCCN)NC(=O)[C@H](CCCNC(=N)N)NC(=O)CNC(=O)[C@H]1CCCCN1C(=O)[C@H](CCCNC(=N)N)NS(=O)(=O)c1ccc(C(C)(C)C)cc1)[C@@H](C)O)C(=O)N[C@@H](Cc1ccc(O)cc1)C(=O)N[C@@H](C)C(=O)N[C@@H](CCC(N)=O)C(=O)N[C@H](C(=O)N[C@@H](CCC(N)=O)C(=O)N[C@@H](CCCCN)C(=O)NCC(=O)N[C@@H](CC(=O)O)C(=O)N[C@@H](Cc1ccccc1)C(=O)N[C@@H](CCC(=O)O)C(=O)N[C@@H](CCC(=O)O)C(=O)N[C@H](C(=O)N1CCC[C@H]1C(=O)N[C@@H](CCC(=O)O)C(=O)N[C@@H](CCC(=O)O)C(=O)N[C@@H](Cc1ccc(O)cc1)C(=O)N[C@@H](CC(C)C)C(=O)N[C@@H](CCC(N)=O)C(=O)O)[C@@H](C)CC)C(C)C` [P3291], for which it took 7 ± 1 nM to reach half-maximal inhibition (IC50). Against the preceding molecule, the IC50 is about 10-fold higher.

The test is the same for the next values; noted with them: IC50, nM (37° C.), 37° C.; concentration needed to double the clotting time.
`CC[C@H](C)[C@H](N)C(=O)N[C@@H](CCCNC(=N)N)C(=O)N[C@@H](Cc1ccccc1)C(=O)N[C@H](C(=O)N[C@@H](CC(=O)O)C(=O)NCC(=O)N[C@@H](CCC(=O)O)C(=O)NCC(=O)N[C@H](C(=O)N1CCC[C@H]1C(=O)N[C@@H](CC(N)=O)C(=O)N1CCC[C@H]1C(=O)N[C@@H](CCC(=O)O)C(=O)N[C@@H](CO)C(=O)N[C@@H](Cc1c[nH]cn1)C(=O)N[C@@H](CC(N)=O)C(=O)N[C@@H](CC(N)=O)C(=O)NCC(=O)N[C@@H](CC(=O)O)C(=O)N[C@@H](Cc1ccccc1)C(=O)N[C@@H](CCC(=O)O)C(=O)N[C@@H](CCC(=O)O)C(=O)N[C@H](C(=O)N1CCC[C@H]1C(=O)N[C@@H](CCC(=O)O)C(=O)N[C@@H](CCC(=O)O)C(=O)N[C@@H](Cc1ccc(O)cc1)C(=O)N[C@@H](CC(C)C)C(=O)N[C@@H](CCC(N)=O)C(=O)O)[C@@H](C)CC)[C@@H](C)O)[C@@H](C)O` [mini-hirudin 2] displayed an IC50 of 14 ± 1 nM.

`CC[C@H](C)[C@H](NC(=O)[C@H](CCC(=O)O)NC(=O)[C@H](CCC(=O)O)NC(=O)[C@H](Cc1ccccc1)NC(=O)[C@H](CC(=O)O)NC(=O)CNC(=O)[C@H](CCCNC(=N)N)NC(=O)[C@H](CC(=O)O)NC(=O)[C@H](C)NC(=O)[C@H](CCCNC(=N)N)NC(=O)[C@H](CO)NC(=O)[C@H](CCC(=O)O)NC(=O)[C@H](CCSC)NC(=O)[C@H](Cc1ccc(O)cc1)NC(=O)CNC(=O)[C@H]1CCCCN1C(=O)[C@H](CCCNC(=N)N)NS(=O)(=O)c1ccc(C(C)(C)C)cc1)C(=O)N1CCC[C@H]1C(=O)N[C@@H](CCC(=O)O)C(=O)N[C@@H](CCC(=O)O)C(=O)N[C@@H](Cc1ccc(O)cc1)C(=O)N[C@@H](CC(C)C)C(=O)N[C@@H](CCC(N)=O)C(=O)O` [P3236]: half-maximal inhibition (IC50) was put at 1 ± 0.5 nM.

On to `CC[C@H](C)[C@H](NC(=O)[C@H](CCC(=O)O)NC(=O)[C@H](CCC(=O)O)NC(=O)[C@H](Cc1ccccc1)NC(=O)[C@H](CC(=O)O)NC(=O)CNC(=O)[C@H](CO)NC(=O)CNC(=O)[C@H](CO)NC(=O)CNC(=O)[C@H]1CCCCN1C(=O)[C@H](CCCN=C(N)N)NS(=O)(=O)c1ccc(C(C)(C)C)cc1)C(=O)N1CCC[C@H]1C(=O)N[C@@H](CCC(=O)O)C(=O)N[C@@H](CCC(=O)O)C(=O)N[C@@H](Cc1ccc(O)cc1)C(=O)N[C@@H](CC(C)C)C(=O)N[C@@H](CCC(N)=O)C(=O)O` [P3149], for which it took 9.7 ± 0.7 nM to reach half-maximal inhibition (IC50).

Molecule `CC[C@H](C)[C@H](NC(=O)[C@H](CCC(=O)O)NC(=O)[C@H](CCC(=O)O)NC(=O)[C@H](Cc1ccccc1)NC(=O)[C@H](CC(=O)O)NC(=O)CNC(=O)[C@H](CC(N)=O)NC(=O)[C@H](CO)NC(=O)[C@@H](NC(=O)[C@H](CCCCN)NC(=O)[C@H](CC(=O)O)NC(=O)[C@@H](NC(=O)[C@@H]1CCCN1C(=O)[C@@H](NC(=O)[C@H](CC(N)=O)NC(=O)[C@H](CC(C)C)NC(=O)[C@H](CC(=O)O)NC(=O)[C@H](CC(C)C)NC(=O)[C@@H](NC(=O)CNC(=O)[C@H]1CCCCN1C(=O)[C@H](CCCNC(=N)N)NS(=O)(=O)c1ccc(C(C)(C)C)cc1)[C@@H](C)O)[C@@H](C)O)C(C)C)[C@@H](C)O)C(=O)N1CCC[C@H]1C(=O)N[C@@H](CCC(=O)O)C(=O)N[C@@H](CCC(=O)O)C(=O)N[C@@H](Cc1ccc(O)cc1)C(=O)N[C@@H](CC(C)C)C(=O)N[C@@H](CCC(N)=O)C(=O)O` [P3181] displayed an IC50 of 1.9 ± 0.2 nM.

Molecule `CC[C@H](C)[C@H](NC(=O)[C@H](CCC(=O)O)NC(=O)[C@H](CCC(=O)O)NC(=O)[C@H](Cc1ccccc1)NC(=O)[C@H](CC(=O)O)NC(=O)CNC(=O)[C@@H](NC(=O)[C@H](CC(=O)O)NC(=O)CNC(=O)[C@H](C)NC(=O)[C@H](CCC(N)=O)NC(=O)[C@H](CCCCN)NC(=O)[C@H](C)NC(=O)CNC(=O)CNC(=O)[C@H](CC(C)C)NC(=O)[C@H](Cc1c[nH]cn1)NC(=O)[C@H](Cc1c[nH]cn1)NC(=O)CNC(=O)[C@H]1CCCCN1C(=O)[C@H](CCCNC(=N)N)NS(=O)(=O)c1ccc(C(C)(C)C)cc1)C(C)C)C(=O)N1CCC[C@H]1C(=O)N[C@@H](CCC(=O)O)C(=O)N[C@@H](CCC(=O)O)C(=O)N[C@@H](Cc1ccc(O)cc1)C(=O)N[C@@H](CC(C)C)C(=O)N[C@@H](CCC(N)=O)C(=O)O` [P3234] displayed an IC50 of 3.9 ± 0.8 nM.

`CC[C@H](C)[C@H](NC(=O)[C@H](CCC(=O)O)NC(=O)[C@H](CCC(=O)O)NC(=O)[C@H](Cc1ccccc1)NC(=O)[C@H](CC(=O)O)NC(=O)CNC(=O)[C@H](CC(=O)O)NC(=O)[C@H](CC(N)=O)NC(=O)[C@H](Cc1c[nH]cn1)NC(=O)[C@H](CO)NC(=O)[C@H](CCC(N)=O)NC(=O)[C@@H]1CCCN1C(=O)[C@H](CCCCN)NC(=O)[C@@H]1CCCN1C(=O)[C@@H](NC(=O)CNC(=O)[C@H](CCC(=O)O)NC(=O)CNC(=O)[C@H](CC(=O)O)NC(=O)[C@@H](NC(=O)[C@H](Cc1ccccc1)NC(=O)[C@H](CCCNC(=N)N)NC(=O)[C@@H](N)C(C)C)[C@@H](C)O)[C@@H](C)O)C(=O)N1CCC[C@H]1C(=O)N[C@@H](CCC(=O)O)C(=O)N[C@@H](CCC(=O)O)C(=O)N[C@@H](Cc1ccc(O)cc1)C(=O)N[C@@H](CC(C)C)C(=O)N[C@@H](CCC(N)=O)C(=O)O` [mini-hirudin 1]: the IC50 is 33 ± 3 nM.
